Laboratory results as given in ChEMBL document CHEMBL5034019, “Discovery of the Next-Generation Pan-TRK Kinase Inhibitors for the Treatment of Cancer” (J Med Chem, 2021).
Values belong to the compound of their own block, whether it stands above or below them.

Experiments:
[1] = AUC (0 to t) in Sprague-Dawley rat at 3 mg/kg measured up to 24 hrs by LC-MS/MS analysis; format: ADME, organism-based; set-up: dose 3 mg/kg, time <=24; conditions: in vivo
[2] = Cmax in Sprague-Dawley rat at 10 mg/kg, po measured up to 24 hrs by LC-MS/MS analysis; format: ADME, organism-based; set-up: route oral, dose 10 mg/kg, time <=24; conditions: in vivo
[3] = Tmax in Sprague-Dawley rat at 10 mg/kg, po measured up to 24 hrs by LC-MS analysis; format: ADME, organism-based; conditions: in vivo
[4] = Toxicity in mouse xenografted with mouse BaF3 cells transfected with LMNA-NTRK1-G595R mutant assessed as weight loss at 100 mg/kg, po administered once daily for 21 days and measured twice weekly; conditions: in vivo, 504 h
[5] = molecular target: Serine/threonine-protein kinase A-Raf (Homo sapiens) (UniProt P10398); assay: Inhibition of recombinant human A-Raf (273 to end residues) assessed as residual activity at 0.5 uM using myelin as substrate incubated for 40 mins in presence of [gamma-33P]-ATP by scintillation counting method relative to control
[6] = tested on: Mast/stem cell growth factor receptor Kit (Homo sapiens), P10721 [D816V]; assay: Inhibition of recombinant human C-Kit D816V mutant (544 to end residues) assessed as residual activity at 0.5 uM poly(Glu, Tyr) 4:1 as substrate incubated 40 mins in presence of [gamma-33ATP] by scintillation counting based radiometry assay relative to control
[7] = molecular target: Focal adhesion kinase 1 (Homo sapiens) (UniProt Q05397); assay: Inhibition of recombinant human FAK (411 to 686 residues) assessed as residual activity at 0.5 uM using EEEEYEEEEEEYYIIEEEEEEYEEEEEEYYEEEEEEKKKK as substrate at 40 mins in presence of [gamma-33ATP] by scintillation counting based radiometry assay relative to control
[8] = molecular target: Fibroblast growth factor receptor 1 (Homo sapiens) (UniProt P11362); assay: Inhibition of recombinant human FGFR1 (456 to 765 residues) assessed as residual activity at 0.5 uM using KKKSPGEYVNIEF as substrate at 40 mins in presence of [gamma-33ATP] by scintillation counting based radiometry assay relative to control
[9] = molecular target: Fibroblast growth factor receptor 2 (Homo sapiens) (UniProt P21802); assay: Inhibition of recombinant human FGFR2 (456 to 770 residues) assessed as residual activity at 0.5 uM using poly(Glu, Tyr) 4:1 as substrate at 40 mins in presence of [gamma-33ATP] by scintillation counting based radiometry assay relative to control
[10] = molecular target: Fibroblast growth factor receptor 3 (Homo sapiens) (UniProt P22607); assay: Inhibition of recombinant human FGFR3 (447 to 761 residues) assessed as residual activity at 0.5 uM using poly(Glu, Tyr) 4:1 as substrate at 40 mins in presence of [gamma-33ATP] by scintillation counting based radiometry assay relative to control
[11] = tested on: Hepatocyte growth factor receptor (Homo sapiens), P08581 [Y1248D]; assay: Inhibition of recombinant human Met Y1248D mutant (974 to end residues) assessed as residual activity at 0.5 uM using KKKGQEEEYVFIE as substrate incubated for 40 mins in presence of [gamma-33P]-ATP by scintillation counting method relative to control
[12] = tested on: Platelet-derived growth factor receptor alpha (Homo sapiens), P16234 [V561D]; assay: Inhibition of human PDGFRalpha V561D mutant (550 to end residues) assessed as residual activity at 0.5 uM using poly(Glu, Tyr) 4:1 as substrate measured after 40 mins in presence of [gamma33P]ATP by scintillation counting based radiometry assay relative to control
[13] = molecular target: Macrophage-stimulating protein receptor (Homo sapiens) (UniProt Q04912); assay: Inhibition of recombinant human Ron (983 to end residues) assessed as residual activity at 0.5 uM using GGMEDIYFEFMGGKKK as substrate incubated for 40 mins in presence of [gamma33P]ATP by scintillation counting based radiometry assay relative to control
[14] = molecular target: Proto-oncogene tyrosine-protein kinase ROS (Homo sapiens, UniProt P08922); assay: Inhibition of recombinant human Ros1 (1883 to end residues) assessed as residual activity at 0.5 uM using KKKSPGEYVNIEFG as substrate measured after 40 mins in presence of [gamma33P]ATP by scintillation counting method relative to control
[15] = tested on: Proto-oncogene tyrosine-protein kinase Src (Homo sapiens), P12931 [T341M]; assay: Inhibition of recombinant full-length human Src T341M mutant assessed as residual activity at 0.5 uM using GGEEEEYFELVKKKK as substrate measured after 40 mins in presence of [gamma33P]ATP by scintillation counting method relative to control
[16] = molecular target: T1, High affinity nerve growth factor receptor (Homo sapiens, UniProt P04629); assay: Inhibition of human TrkA (440 to end residues) assessed as residual activity at 0.5 uM using KKKSPGEYVNIEFG as substrate measured after 40 mins in presence of [gamma33P]ATP by scintillation counting method relative to control
[17] = molecular target: Tyrosine-protein kinase JAK1 (Homo sapiens) (UniProt P23458); assay: Inhibition of human JAK1 (866 to end residues) assessed as residual activity at 0.5 uM using GEEPLYWSFPAKKK as substrate after 40 mins by [gamma-33ATP] radiometric assay relative to control
[18] = molecular target: Tyrosine-protein kinase JAK2 (Homo sapiens) (UniProt O60674); assay: Inhibition of human JAK2 (808 to end residues) assessed as residual activity at 0.5 uM using KTFCGTPEYLAPEVRREPRILSEEEQEMFRDFDYIADWC as substrate after 40 mins by [gamma-33ATP] radiometric assay relative to control
[19] = molecular target: Vascular endothelial growth factor receptor 2 (Homo sapiens) (UniProt P35968); assay: Inhibition of human KDR (790 to end residues) assessed as residual activity at 0.5 uM using myelin basic protein as substrate after 40 mins by [gamma-33ATP] radiometric assay relative to control
[20] = Half life in female Sprague-Dawley rat at 2 mg/kg, iv measured up to 24 hrs by LC-MS/MS analysis; format: ADME, organism-based; conditions: in vivo
[21] = Cmax in female Sprague-Dawley rat at 10 mg/kg, po measured up to 24 hrs by LC-MS/MS analysis; format: ADME, organism-based; set-up: route oral, dose 10 mg/kg, time <=24; conditions: in vivo
[22] = AUC (0 to t) in male Sprague-Dawley rat at 10 mg/kg, po measured up to 24 hrs by LC-MS/MS analysis; format: ADME, organism-based; set-up: route oral, dose 10 mg/kg, time <=24; conditions: in vivo
[23] = AUC (0 to t) in female Sprague-Dawley rat at 10 mg/kg, po measured up to 24 hrs by LC-MS/MS analysis; format: ADME, organism-based; set-up: route oral, dose 10 mg/kg, time <=24; conditions: in vivo
[24] = molecular target: T1, High affinity nerve growth factor receptor
Target sequence in this assay (P04629 whole entry): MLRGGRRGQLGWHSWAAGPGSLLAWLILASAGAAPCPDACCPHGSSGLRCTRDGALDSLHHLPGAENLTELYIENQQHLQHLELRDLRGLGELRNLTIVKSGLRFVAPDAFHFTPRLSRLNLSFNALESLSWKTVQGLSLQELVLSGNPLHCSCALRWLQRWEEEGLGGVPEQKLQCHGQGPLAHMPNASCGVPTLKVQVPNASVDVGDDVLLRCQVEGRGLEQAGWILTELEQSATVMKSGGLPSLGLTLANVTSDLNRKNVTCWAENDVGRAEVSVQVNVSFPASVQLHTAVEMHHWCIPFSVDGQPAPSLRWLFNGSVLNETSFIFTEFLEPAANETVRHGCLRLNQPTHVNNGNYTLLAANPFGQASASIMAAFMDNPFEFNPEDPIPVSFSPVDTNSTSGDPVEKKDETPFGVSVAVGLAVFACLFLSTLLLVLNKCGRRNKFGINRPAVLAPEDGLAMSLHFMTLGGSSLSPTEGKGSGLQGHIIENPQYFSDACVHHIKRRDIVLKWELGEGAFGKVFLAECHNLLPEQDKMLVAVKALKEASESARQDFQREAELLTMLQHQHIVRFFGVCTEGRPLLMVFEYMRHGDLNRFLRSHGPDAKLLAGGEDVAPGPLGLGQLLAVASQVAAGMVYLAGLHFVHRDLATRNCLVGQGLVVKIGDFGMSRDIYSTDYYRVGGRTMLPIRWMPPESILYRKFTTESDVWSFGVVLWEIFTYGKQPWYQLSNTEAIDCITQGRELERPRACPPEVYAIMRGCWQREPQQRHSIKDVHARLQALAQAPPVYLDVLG
Description: Inhibition of TrKA (unknown origin) incubated for 120 mins in presence of 33P-ATP

[25] = molecular target: ALK tyrosine kinase receptor (Homo sapiens, UniProt Q9UM73)
Description: Inhibition of ALK (unknown origin) incubated for 120 mins in presence of 33P-ATP

[26] = in vitro; conditions: human, Caco-2
Description: Efflux ratio of apparent permeability from basolateral to apical over apical to basolateral side in human Caco2 cells incubated for 2 hrs by LC-MS/MS analysis

Chain of Proto-oncogene tyrosine-protein kinase ROS (P08922 whole entry): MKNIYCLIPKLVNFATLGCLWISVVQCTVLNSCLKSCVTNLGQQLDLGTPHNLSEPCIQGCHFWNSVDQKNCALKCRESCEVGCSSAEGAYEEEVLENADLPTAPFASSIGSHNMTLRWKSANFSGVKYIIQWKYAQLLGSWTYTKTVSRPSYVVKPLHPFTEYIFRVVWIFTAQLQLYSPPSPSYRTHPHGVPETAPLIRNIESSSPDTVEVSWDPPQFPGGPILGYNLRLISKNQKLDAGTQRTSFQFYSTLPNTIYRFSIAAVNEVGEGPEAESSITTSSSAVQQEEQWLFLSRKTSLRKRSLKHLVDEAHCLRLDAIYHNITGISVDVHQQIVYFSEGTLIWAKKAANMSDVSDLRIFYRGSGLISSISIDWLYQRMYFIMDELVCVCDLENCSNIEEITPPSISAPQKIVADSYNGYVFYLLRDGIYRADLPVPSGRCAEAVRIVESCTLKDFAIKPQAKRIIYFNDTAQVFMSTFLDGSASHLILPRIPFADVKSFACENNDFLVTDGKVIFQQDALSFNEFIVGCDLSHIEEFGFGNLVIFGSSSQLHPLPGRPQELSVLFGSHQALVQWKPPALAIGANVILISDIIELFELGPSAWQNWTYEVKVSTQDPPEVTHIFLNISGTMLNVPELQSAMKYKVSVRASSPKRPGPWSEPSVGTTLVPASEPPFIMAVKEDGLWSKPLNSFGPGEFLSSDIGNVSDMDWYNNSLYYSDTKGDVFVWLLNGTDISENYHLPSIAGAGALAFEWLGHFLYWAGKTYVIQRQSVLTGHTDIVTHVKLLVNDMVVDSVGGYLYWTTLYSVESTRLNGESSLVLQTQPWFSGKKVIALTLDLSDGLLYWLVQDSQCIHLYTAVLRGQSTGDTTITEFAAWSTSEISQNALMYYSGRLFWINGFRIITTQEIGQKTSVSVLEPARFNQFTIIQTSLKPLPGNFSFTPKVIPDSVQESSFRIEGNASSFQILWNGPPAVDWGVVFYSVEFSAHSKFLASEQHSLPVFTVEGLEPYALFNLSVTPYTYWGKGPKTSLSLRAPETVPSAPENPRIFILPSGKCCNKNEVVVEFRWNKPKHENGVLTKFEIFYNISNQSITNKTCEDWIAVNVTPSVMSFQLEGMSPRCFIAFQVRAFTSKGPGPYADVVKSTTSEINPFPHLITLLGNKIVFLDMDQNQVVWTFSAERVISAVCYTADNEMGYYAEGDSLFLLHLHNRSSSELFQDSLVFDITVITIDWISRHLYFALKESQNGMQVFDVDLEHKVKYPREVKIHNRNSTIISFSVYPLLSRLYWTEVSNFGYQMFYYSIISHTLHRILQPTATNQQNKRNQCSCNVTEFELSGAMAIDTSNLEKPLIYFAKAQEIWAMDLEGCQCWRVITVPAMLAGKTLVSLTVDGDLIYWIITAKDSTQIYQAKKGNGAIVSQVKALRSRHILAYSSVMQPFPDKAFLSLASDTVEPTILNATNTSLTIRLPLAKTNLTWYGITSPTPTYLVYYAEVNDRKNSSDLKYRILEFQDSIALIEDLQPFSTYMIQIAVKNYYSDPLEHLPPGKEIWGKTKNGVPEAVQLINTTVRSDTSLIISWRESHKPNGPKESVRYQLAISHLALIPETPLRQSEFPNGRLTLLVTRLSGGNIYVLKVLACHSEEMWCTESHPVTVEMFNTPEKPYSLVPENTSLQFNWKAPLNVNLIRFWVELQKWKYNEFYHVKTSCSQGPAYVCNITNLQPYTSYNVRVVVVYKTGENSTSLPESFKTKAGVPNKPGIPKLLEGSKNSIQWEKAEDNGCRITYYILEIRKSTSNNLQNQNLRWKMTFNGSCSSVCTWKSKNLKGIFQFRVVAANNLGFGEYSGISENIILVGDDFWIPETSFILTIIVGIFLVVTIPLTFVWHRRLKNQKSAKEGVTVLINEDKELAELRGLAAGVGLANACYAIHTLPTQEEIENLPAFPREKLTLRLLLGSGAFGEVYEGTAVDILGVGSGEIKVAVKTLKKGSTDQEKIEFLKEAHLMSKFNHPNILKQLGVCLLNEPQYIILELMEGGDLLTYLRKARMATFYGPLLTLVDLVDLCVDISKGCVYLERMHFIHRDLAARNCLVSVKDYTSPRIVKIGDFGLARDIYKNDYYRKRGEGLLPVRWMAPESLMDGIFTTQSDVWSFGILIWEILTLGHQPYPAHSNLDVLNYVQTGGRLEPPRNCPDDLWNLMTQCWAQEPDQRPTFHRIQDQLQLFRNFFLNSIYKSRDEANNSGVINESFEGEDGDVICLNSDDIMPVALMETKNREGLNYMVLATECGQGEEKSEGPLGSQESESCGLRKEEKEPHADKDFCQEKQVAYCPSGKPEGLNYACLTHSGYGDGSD
Chain of Fibroblast growth factor receptor 2 (Homo sapiens) (P21802 22-821 limits assumed): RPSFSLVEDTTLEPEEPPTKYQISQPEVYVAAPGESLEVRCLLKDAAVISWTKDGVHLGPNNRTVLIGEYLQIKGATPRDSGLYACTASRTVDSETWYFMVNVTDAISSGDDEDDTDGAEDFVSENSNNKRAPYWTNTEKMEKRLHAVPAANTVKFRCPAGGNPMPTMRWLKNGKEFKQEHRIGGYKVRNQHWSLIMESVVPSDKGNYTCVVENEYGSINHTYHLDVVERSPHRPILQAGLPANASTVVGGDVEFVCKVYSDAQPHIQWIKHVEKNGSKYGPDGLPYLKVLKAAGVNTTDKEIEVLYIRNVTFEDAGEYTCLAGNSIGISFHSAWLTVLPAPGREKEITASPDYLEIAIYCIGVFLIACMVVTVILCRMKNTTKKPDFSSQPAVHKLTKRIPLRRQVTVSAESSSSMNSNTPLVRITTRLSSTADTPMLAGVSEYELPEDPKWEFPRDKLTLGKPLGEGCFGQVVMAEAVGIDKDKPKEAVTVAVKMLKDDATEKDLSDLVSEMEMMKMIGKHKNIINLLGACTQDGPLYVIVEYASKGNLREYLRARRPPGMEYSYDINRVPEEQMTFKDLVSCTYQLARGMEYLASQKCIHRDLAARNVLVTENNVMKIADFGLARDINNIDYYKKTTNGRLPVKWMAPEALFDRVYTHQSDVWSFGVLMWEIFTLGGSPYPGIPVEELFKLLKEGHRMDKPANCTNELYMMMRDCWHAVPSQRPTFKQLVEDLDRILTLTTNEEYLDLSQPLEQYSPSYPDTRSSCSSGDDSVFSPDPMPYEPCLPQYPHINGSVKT
Chain of Fibroblast growth factor receptor 1 (Homo sapiens) (P11362 22-822 limits assumed): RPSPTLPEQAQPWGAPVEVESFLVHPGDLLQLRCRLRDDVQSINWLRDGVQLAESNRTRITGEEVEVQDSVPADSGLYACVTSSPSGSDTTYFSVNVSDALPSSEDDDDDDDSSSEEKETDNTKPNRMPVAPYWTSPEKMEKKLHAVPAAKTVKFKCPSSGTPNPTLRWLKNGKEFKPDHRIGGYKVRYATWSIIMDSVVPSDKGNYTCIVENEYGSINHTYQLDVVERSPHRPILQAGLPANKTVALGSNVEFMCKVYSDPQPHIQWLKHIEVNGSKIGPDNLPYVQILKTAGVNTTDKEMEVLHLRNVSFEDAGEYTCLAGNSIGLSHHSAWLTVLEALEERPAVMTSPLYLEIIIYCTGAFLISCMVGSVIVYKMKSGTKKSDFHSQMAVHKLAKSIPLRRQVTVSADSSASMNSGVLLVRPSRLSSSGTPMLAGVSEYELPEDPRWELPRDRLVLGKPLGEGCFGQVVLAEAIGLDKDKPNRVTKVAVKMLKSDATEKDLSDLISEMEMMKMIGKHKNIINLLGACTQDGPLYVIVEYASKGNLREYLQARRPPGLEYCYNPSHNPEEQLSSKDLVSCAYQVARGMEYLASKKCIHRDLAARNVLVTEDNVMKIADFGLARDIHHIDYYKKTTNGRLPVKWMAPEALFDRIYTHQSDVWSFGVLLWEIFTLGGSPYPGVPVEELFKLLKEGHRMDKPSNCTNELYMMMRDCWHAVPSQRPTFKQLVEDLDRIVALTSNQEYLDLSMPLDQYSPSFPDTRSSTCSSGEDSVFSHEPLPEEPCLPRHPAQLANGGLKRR

SMILES: C[C@@H]1CCc2ncc(F)cc2[C@H]2CCCN2c2ccn3ncc(c3n2)C(=O)N1 [SELITRECTINIB]
AUC(0-t) at 24 h [1]: 11.1 µM·h
Cmax [2]: 12.7 µM
Tmax [3]: 0.4 h
Activity [4]: Toxic

Activity [5]: 103%
Activity [6]: 101%
Activity [7]: 72%
Activity [8]: 92%
Activity [9]: 93%
Activity [10]: 96%
Activity [11]: 96%
Activity [12]: 103%
Activity [13]: 112%
Activity [14]: 16%
Activity [15]: 55%
Activity [16]: 2%
Activity [17]: 91%
Activity [18]: 44%
Activity [19]: 108%
half-life [20]: 2.21 h
Cmax [21]: 6.63 µM
AUC(0-t) at 24 h [22]: 11.7 µM·h
AUC(0-t) at 24 h [23]: 31.7 µM·h
IC50 [24]: 2.4 nM
IC50 [25]: 182 nM
efflux ratio at 2 h [26]: 2.8
SMILES: O=C1NC2(CC2)COc2ncc(F)cc2[C@H]2COCCN2c2ccn3ncc1c3n2
